1 substance from US20110039770A1, “INHIBITORS OF PROTEIN KINASE C ISOFORMS AND USES THEREOF” (PHARMAGAP INC., priority 2005, published 2011) can be followed below.

Common to all, as to test: Tetracycline-induced expression of TIM 17 in IMR32 cells, PKC isoform level
Common to all, as to assay type: cell-based

One experiment concerns the target T1, PKC epsilon (Homo sapiens, UniProt Q02156).
T1 sequence (Q02156 1-737): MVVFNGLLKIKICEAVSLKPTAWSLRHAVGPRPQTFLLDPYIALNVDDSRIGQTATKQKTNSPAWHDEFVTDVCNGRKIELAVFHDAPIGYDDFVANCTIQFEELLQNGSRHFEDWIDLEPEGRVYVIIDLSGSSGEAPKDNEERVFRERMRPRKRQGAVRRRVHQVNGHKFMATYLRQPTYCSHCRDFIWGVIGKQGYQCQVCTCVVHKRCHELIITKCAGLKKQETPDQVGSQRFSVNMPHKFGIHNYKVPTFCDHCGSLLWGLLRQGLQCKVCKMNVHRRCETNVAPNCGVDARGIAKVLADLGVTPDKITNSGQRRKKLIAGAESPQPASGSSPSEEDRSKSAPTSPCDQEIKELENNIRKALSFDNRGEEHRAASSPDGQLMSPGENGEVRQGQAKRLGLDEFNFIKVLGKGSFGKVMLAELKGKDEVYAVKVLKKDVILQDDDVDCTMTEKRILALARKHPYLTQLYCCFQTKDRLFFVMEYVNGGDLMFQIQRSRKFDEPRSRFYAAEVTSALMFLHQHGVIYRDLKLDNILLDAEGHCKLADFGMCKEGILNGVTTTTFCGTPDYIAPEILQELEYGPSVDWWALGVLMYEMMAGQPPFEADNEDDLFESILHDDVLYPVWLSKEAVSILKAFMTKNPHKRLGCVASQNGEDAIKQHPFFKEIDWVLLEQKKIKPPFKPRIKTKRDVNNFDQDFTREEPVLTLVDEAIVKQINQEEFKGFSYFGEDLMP
Also noted: endogenous in cells. Conditions: fluorescence imaging; confirmed by Western blot. How it is done:
(§1) The specificity and efficacy of compound TIM 17 (see Table 28) was tested intracellularly on 3 PKC isoforms (α, δ and ε), which are the main isoforms expressed in the IMR32 neuroblastoma cell lines and neuroblastoma biopsies.
(§2) The synthetic TIM 17 gene was subcloned into the pREx-DEST31(7559) expression vector and transfected into IMR32 neuroblastoma cells using standard techniques. Transcription of the TIM 17 gene is under the control of a tetracycline promoter that allows gene expression to be switched on and off. Expression of the TIM 17 gene was elicited by treatment with 150 ng/ml of tetracycline for 48 h.
(§3) The expression level of PKC-α, δ and ε was also assessed by fluorescence imaging using anti-PKC antibodies from SantaCruz and secondary Alexa 488 conjugate from Invitrogen. Microscopic images were obtained from a Coulter microscope equipped with epifluorescence and the images analyzed with ImagePro+ software with the assistance of DAGE-MTI camera. The same gating was maintained constant for all images. […] The above results were also confirmed by Western blot.
Background: In western blotting, separated proteins are transferred to a membrane and probed.

For another experiment, the target named is PKC delta (Homo sapiens, UniProt Q05655). The arrangement: endogenous in cells. Conditions: fluorescence imaging; confirmed by Western blot. As to the method: as §1, §2, §3
The next experiment deals with PKC-α (Homo sapiens, UniProt P17252). The arrangement: endogenous PKC-α in (A) untreated human neuroblastoma (IMR-32) cells; endogenous in cells; host or cells: IMR-32 human neuroblastoma cells. Conditions: TIM 17 transfected cells + 150 ng/ml tetracycline 48 h; flow cytometry. As to the method: as §1, §2
The data were acquired from 20,000 to 50,000 individual cells. The graph scales report the number of events measured at the peak of fluorescence while the percentage of cells positive to the specific anti-PKCalpha antibody is shown on the graphs together with the relative intensity (see number provided below the percentage). The relative intensity correlates to the mean intracellular level of PKCalpha in the cell population.
The expression level of PKC-α, δ and ε was also assessed by fluorescence imaging using anti-PKC antibodies from SantaCruz and secondary Alexa 488 conjugate from Invitrogen. Microscopic images were obtained from a Coulter microscope equipped with epifluorescence and the images analyzed with ImagePro+ software with the assistance of DAGE-MTI camera. […]
Background: A flow cytometer gives signals particle by particle.

Sequence of PKC delta (Q05655 whole entry): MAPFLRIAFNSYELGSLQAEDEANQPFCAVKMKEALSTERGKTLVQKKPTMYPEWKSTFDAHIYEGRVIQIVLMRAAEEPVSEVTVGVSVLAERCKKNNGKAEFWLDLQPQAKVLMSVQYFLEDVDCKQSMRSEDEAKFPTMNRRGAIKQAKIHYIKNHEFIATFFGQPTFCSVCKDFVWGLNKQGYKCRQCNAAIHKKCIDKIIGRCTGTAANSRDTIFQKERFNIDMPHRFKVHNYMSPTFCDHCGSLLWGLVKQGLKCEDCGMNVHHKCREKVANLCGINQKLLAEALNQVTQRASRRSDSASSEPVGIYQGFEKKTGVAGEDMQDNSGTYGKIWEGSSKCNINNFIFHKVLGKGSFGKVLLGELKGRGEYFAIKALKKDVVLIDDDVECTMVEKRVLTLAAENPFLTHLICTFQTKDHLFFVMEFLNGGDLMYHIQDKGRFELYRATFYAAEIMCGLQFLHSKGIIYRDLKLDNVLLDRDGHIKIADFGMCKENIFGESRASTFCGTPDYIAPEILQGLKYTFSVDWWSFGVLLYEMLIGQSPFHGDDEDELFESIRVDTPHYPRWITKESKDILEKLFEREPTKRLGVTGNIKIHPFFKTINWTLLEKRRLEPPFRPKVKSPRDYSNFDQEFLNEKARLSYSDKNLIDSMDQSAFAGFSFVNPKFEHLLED

With FRRKFRL—(G)7—KDAQNLIGISI [TIM 17], on PKC epsilon, the “intracellular level of PKC epsilon” value was “did not, however, alter the intracellular level”. In addition, the “intracellular level of PKC delta” value on PKC delta was “did not, however, alter the intracellular level”. For the same substance, on PKC-α, the “percentage of cells expressing similar levels of PKCalpha as controls” value is on record as 30% and the “percentage of population with dramatic decrease in PKC alpha cellular content” value is 69.8%.
